Assay results published in patent US9623111B2, “Pegylated artesunate derivative, pharmaceutical composition and use thereof” (Institute of Pharmacology and Toxicology Academy of …, priority 2012, dated 2017).

system: not listed separately; assay: Determination of drug-time curve in vivo (serum dihydroartemisinin by LC-MS after intravenous injection); conditions: SD rats, single intravenous (caudal vein) injection, dose equivalent to 10 mg/kg artesunate
Protocol: Samples: Artesunate, Compounds 1-4.
Preparation of samples: artesunate was dissolved with 5% NaHCO3 physiological saline to obtain 10 mg/ml colorless pellucid solution; Compound 1 was dissolved with injection physiological saline to prepare a colorless pellucid solution containing equivalently 10 mg/ml artesunate.
Animals: SD rats were purchased from the Animal Center of the Military Medical Science Academy of the PLA, body weight 200±10 g, male, conventionally raised, free diet.
Experimental method: solutions of artesunate and Compound 1 samples were administrated to each rat by intravenous injection in an amount of 0.2 ml (a dose equivalent to 10 mg/kg artesunate). Blood samples were collected at 0 min, 10 min, 20 min, 30 min, 45 min, 1 hr, 1.5 hr, 2 hr, 2.5 hr, 3 hr, 4 hr, 6 hr, 8 hr, 10 hr, respectively, and serum concentration of dihydroartemisinin were measured by LC-MS method.
Experimental Results: See FIG. 1.

Row | Molecule | half-life extended in comparison with artesunate
1 | [(Artesunate-)2-Lys-]2-PEG20k [Compound 1] | about 5 times

system: Plasmodium berghei; assay: Evaluation of anti-malarial effects (murine malaria 4 day inhibition method, infected Kunming mice); assay type: in vivo; conditions: intraperitoneal injection, dose equivalent to 10 mg/kg artesunate, 4 administrations, D4, mean (range)
Protocol: Preparation of animals and pathological models: Kunming mice were purchased from the Animal Center of the Military Medical Science Academy of the PLA, body weight 20±2 g, female, conventionally raised, free diet. The mice were inoculated 1×10^7 plasmodia via intraperitoneal injection on the test day (DO) to infect red blood cells to establish murine malaria infection models.
Dosage regimen: the solutions of artesunate and PEGlyation derivatives thereof were diluted with injection water to a concentration equivalent to 1 mg/ml artesunate, and each mouse was administrated by 0.2 ml intraperitoneal injection (a dose equivalent to 10 mg/kg artesunate). First administration was performed 3 hours after the mice were infected, then administrated once per 24 hours, until the 3rd day (D3) after infection, that was, totally administrated for 4 times. The placebo control group was injected with physiological saline of same volume.
On the 4th day (D4) after administration of 10 mg/kg body weight artesunate and its PEGlyation derivatives, their inhibition rates to Plasmodium berghei were all 80% or more, and there was no significant difference of inhibition rate between the derivatives and artesunate (Table 1).

Row | Molecule | inhibition rates to Plasmodium berghei, Mean (column group headed Parasitemia (%))
2 | C[C@H]1[C@H](OC(=O)CCC(=O)O)O[C@@H]2O[C@@]3(C)CC[C@H]4[C@H](C)CC[C@@H]1[C@@]24OO3 [Artesunate] | 84.0(76.0-94.6) %
3 | mPEG20k-Lys2-(Artesunate)4 [Compound 3] | 92.1(87.8-95.1) %
4 | mPEG20k-Lys-(Artesunate)2 [Compound 2] | 87.0(79.3-97.4) %
5 | Artesunate-NH-PEG20k-NH-Artesunate [Compound 4] | 80.8(79.7-87.0) %
6 | [(Artesunate-)2-Lys-]2-PEG20k [Compound 1] | 87.2(82.7-92.7) %
